Data set [1] in a line: Solubility in organic solvents. It counts as physicochemical. The settings on record: in ethyl acetate, methanol and acetone.
Data set [2] deals with T1, rat brain acetylcholinesterase (Rattus norvegicus, UniProt P37136).
T1 construct: from tissue; host or cells: rat brain
T1 sequence (P37136 32-614): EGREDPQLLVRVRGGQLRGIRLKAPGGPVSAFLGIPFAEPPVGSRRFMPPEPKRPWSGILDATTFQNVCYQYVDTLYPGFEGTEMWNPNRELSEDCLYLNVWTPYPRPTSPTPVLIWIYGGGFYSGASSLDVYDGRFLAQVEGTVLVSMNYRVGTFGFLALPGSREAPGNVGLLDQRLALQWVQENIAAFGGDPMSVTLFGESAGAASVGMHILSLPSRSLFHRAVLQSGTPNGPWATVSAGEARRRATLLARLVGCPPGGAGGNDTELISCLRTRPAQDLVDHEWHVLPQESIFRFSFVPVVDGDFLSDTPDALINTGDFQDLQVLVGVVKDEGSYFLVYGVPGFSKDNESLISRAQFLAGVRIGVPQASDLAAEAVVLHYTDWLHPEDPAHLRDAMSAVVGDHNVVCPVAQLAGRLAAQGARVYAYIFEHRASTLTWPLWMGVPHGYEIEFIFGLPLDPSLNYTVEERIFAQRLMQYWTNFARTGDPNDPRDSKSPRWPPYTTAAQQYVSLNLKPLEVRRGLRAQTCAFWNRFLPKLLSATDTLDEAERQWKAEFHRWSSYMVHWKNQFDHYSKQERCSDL
The experiment in a line: Rat brain acetylcholinesterase inhibition (Ellman method). The settings on record: rat brain enzyme; 15 min pre-incubation at 25° C.; acetyl thiocholine iodide 0.5 mM; pH 7.4; read-out: IC50 against rat brain AchE. It is filed as biochemical. The procedure:
Absorbance change at 412 nm is monitored every 30 seconds for 2 min in an UV-VIS Spectrophotometer. Inhibition is calculated relative to the solvent control. IC50 is determined by regression analysis.
A general note: Ellman's reagent forms a yellow product with free thiols.

Data set [3] concerns mosquito larvae culex quinquifasciatus. Description: Insecticidal activity against mosquito larvae. The note with it: in water (70 ppm); exposed for 24 hrs. It is filed as in vivo. The procedure:
Yet another embodiment of the present invention, wherein said compound effective against mosquito larvae at an optimum concentration of 70 μg/ml water (70 ppm) when exposed for 24 hrs.
Still another embodiment of the present invention, wherein the insecticidal activity of the compound against mosquito larvae is selected from culex quinquifasciatus.

The test system of data set [4] is serine esterase of the rat liver serum. The experiment in a line: Serine esterase inhibition. It counts as biochemical.
For data set [5], the target named is T2, acetylcholinesterase from erythrocytes (Homo sapiens, UniProt P22303).
T2 construct: from tissue; host or cells: erythrocytes
T2 sequence (P22303 32-617 isoform P22303-2 limits assumed): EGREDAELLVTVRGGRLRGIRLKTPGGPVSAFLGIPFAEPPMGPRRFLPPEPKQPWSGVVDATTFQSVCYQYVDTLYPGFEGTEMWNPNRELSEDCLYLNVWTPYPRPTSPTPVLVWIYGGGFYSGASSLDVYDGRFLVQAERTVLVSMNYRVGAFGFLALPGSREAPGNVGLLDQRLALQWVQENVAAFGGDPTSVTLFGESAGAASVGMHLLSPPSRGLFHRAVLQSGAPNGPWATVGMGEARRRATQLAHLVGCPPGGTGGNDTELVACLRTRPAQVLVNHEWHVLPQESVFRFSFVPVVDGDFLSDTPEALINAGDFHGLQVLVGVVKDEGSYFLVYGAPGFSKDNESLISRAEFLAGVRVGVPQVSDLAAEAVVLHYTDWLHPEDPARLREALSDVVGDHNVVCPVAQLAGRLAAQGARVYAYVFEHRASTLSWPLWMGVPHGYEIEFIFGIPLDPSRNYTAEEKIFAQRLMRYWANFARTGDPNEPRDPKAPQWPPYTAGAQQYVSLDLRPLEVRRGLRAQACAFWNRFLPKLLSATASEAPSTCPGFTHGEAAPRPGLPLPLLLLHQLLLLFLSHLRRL
Description: Erythrocyte acetylcholinesterase inhibition. It counts as biochemical, rat. The note with it: erythrocyte enzyme; read-out: IC50 against acetylcholinesterase from erythrocytes.

As a reminder, the IC50 is the concentration that gives 50% inhibition.

As for `COc1ccc(C(=O)O)c(C(O)CCCCCCCC(=O)CC(C)O)c1` (centres unmarked) [Sporotricolone, 12-(2′-CARBOXY-5′-METHOXYPHENYL)-2,12-DIHYDROXY-DODECA-4-ONE], in data set [1], the Solubility result is recorded as “Highly soluble”. Also, the 50% inhibitory concentration (IC50) in data set [2] and in data set [5] was 20 µM throughout. The “optimum concentration effective against mosquito larvae” value in data set [3] stood at 70 µg/mL. Besides, the “inhibition of serine esterase of the rat liver serum” value in data set [4] is listed as “inhibitor”.

The values above are taken from patent US7045648B2, “Compound as cholinesterase inhibitor and its isolation from fungus sporotrichum species” (priority 2002, dated 2006).
